# Biological target: T1, PI3K alpha (Homo sapiens, UniProt P42336)
# T1 construct: purchased Millipore Upstate
# Test: P110 Alpha TR-FRET Assay (PI3K alpha kinase assay, HTRF Transcreener ADP Assay)
# Assay type: biochemical
# Settings: PI3K (WT)
# Description: PI3K alpha kinase assay may be done using HTRF Transcreener ADP Assay (Cisbio).
# Composition of the reaction buffer was as follows 50 mM HEPES, pH 7.5, 5 mM MgCl2, 1 mM DTT, 30 μM Na3VO4. PI3 Kinase was procured from Millipore Upstate. […] ATP was used at final concentration of 10 μM. Corning 384 well white plates were used for the assay.
# 2 μl of diluted enzyme (50 ng), 3 μl of diluted compound and 5 μl of buffer were added, mixed then incubated for 20 minutes with shaking at 400 rpm. 3 μl of substrate (10 μM of ATP and 5 μM PIP2) were added to initiate the reaction. The samples were incubated for 20 min. At the end of the reaction time 10 μl of the Detection mix (5 μl of ADP-D2 and 5 μl of Anti-ADP-Cryptate) was added and the contents were incubated for 1 h. The reaction plate was directly read in an Envision Multilabel Plate Reader.
# T1 sequence (P42336 whole entry): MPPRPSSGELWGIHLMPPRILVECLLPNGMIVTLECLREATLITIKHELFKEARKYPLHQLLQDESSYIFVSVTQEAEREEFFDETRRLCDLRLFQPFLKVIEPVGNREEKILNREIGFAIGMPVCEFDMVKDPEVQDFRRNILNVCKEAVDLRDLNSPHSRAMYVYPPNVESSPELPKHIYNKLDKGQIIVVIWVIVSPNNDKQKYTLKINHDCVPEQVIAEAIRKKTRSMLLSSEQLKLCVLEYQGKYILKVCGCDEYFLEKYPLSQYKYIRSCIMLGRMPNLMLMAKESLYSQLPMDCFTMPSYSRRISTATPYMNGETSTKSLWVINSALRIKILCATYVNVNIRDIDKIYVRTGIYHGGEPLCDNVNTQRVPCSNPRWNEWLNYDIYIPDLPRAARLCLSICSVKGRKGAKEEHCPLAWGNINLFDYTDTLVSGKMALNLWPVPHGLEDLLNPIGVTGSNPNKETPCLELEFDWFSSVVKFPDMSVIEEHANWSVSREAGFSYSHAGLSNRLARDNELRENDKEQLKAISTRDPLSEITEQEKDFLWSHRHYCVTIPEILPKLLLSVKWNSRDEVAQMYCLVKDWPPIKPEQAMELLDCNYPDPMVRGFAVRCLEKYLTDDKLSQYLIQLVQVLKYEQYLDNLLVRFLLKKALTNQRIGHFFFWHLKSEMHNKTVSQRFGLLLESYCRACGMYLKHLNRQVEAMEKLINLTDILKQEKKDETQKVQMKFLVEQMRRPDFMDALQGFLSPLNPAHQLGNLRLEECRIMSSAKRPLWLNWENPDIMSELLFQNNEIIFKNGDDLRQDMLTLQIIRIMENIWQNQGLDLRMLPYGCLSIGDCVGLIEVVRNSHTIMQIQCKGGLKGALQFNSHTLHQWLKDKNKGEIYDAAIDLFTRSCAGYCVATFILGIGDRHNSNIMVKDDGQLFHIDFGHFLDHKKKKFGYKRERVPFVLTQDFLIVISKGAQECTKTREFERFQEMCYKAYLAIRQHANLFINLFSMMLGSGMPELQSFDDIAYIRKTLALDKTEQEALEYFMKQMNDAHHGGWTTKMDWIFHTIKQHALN
# T1 sequence (P27986 whole entry partner): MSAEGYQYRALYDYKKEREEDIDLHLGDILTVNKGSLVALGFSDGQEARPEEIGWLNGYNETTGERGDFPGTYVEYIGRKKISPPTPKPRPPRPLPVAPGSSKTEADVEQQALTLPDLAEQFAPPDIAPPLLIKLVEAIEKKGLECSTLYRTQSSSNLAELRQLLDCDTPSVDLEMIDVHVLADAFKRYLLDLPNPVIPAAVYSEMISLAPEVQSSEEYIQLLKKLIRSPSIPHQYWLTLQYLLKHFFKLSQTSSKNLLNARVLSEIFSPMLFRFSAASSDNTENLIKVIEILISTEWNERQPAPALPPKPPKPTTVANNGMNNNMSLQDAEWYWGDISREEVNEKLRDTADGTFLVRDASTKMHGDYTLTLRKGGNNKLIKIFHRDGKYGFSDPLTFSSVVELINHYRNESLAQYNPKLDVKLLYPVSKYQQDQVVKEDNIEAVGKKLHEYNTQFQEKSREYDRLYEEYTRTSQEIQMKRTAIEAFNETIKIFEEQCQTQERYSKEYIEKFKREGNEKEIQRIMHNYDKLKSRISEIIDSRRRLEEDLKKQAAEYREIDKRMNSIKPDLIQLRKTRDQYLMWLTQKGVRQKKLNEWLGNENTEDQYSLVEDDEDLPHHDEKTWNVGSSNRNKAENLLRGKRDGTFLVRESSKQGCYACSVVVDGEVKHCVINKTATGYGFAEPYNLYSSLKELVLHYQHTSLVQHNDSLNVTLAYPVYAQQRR
row,IC50 [µM],SMILES
1,> 5,"CN(C)C(=O)c1ccc(Oc2nc(-c3cccc4c(=O)[nH]ccc34)nc(N3CCOCC3)n2)cc1 [Compound 1033, N,N-dimethyl-4-14-{[4-5-(morpholin-4-yl)-6-1-(1-30-oxo-1,2-dihydroisoquinolin-5-yl)-1,3,5-triazin-2-yl]oxy}benzamide]"
2,> 5,"CN(C)C(=O)c1ccc(Oc2nc(-c3cccc4[nH]c(=O)[nH]c34)nc(N3CCOCC3)n2)cc1 [Compound 1034, N,N-dimethyl-4-14-{[4-5-(morpholin-4-yl)-6-1-(2-21-oxo-2,3-dihydro-1H-1,3-benzodiazol-4-yl)-1,3,5-triazin-2-yl]oxy}benzamide]"
3,< 5,"CN(C)C(=O)[C@H]1CC[C@H](Oc2nc(-c3ccc(N)nc3)nc(N3CCOCC3)n2)CC1 [Compound 1035, (1r,4r)-4-9-{[4-1-(6-12-aminopyridin-3-yl)-6-5-(morpholin-4-yl)-1,3,5-triazin-2-yl]oxy}-N,N-dimethylcyclohexane-1-carboxamide]"
4,< 5,"CN(C)C(=O)c1ccc(Oc2nc(-c3ccnc(N)c3)nc(N3CCOCC3)n2)cc1 [Compound 1036, 4-14-{[4-1-(2-26-aminopyridin-4-yl)-6-5-(morpholin-4-yl)-1,3,5-triazin-2-yl]oxy}-N,N-dimethylbenzamide]"
5,< 5,"Nc1ccc(-c2nc(SCc3ccccc3)nc(N3CCOCC3)n2)cn1 [Compound 1037, 5-(4-(benzylthio)-6-morpholino-1,3,5-triazin-2-yl)pyridin-2-amine]"
6,> 5,"CN(C)C(=O)c1ccc(Oc2nc(-c3cccc4[nH]ncc34)nc(N3CCNC(=O)CC3)n2)cc1 [Compound 1038, 4-7-{[4-5-(1H-indazol-4-yl)-6-3-(5-31-oxo-1,4-diazepan-1-yl)-1,3,5-triazin-2-yl]oxy}-N,N-dimethylbenzamide]"
7,> 5,"CN(C)C(=O)c1ccc(Oc2nc(-c3cccc4[nH]ncc34)nc(N3CCCC(C(N)=O)C3)n2)cc1 (stereo not drawn) [Compound 1039, 1-27-{4-1-[4-10-(dimethylcarbamoyl)phenoxy]-6-5-(1H-indazol-4-yl)-1,3,5-triazin-2-yl}piperidine-3-carboxamide]"
8,< 5,"CN(C)C(=O)c1cccc(Nc2nc(-c3cnc(N)nc3)nc(N3CCOCC3)n2)c1 [Compound 1040, 3-((4-(2-aminopyrimidin-5-yl)-6-morpholino-1,3,5-triazin-2-yl)amino)-N,N-dimethylbenzamide]"
9,< 5,"CN(C)C(=O)c1ccc(Oc2nc(-c3cnc4[nH]ccc4c3)nc(N3CCOCC3)n2)cc1 [Compound 1041, N,N-dimethyl-4-8-{[4-5-(morpholin-4-yl)-6-1-{1H-pyrrolo[2,3-b]pyridin-5-yl}-1,3,5-triazin-2-yl]oxy}benzamide]"
10,< 5,"Nc1ncc(-c2nc(N3CCOCC3)nc(N3CCOCC3)n2)s1 [Compound 1042, 5-7-[4-3,6-5-bis(morpholin-4-yl)-1,3,5-triazin-2-yl]-1,3-thiazol-2-amine]"
11,> 5,"CN(C)C(=O)c1ccc(Oc2nc(-c3cccc4[nH]ncc34)nc(N3CCOc4ccccc43)n2)cc1 [Compound 1043, 4-9-{[4-5-(3,4-dihydro-2H-1,4-benzoxazin-4-yl)-6-1-(1H-indazol-4-yl)-1,3,5-triazin-2-yl]oxy}-N,N-dimethylbenzamide]"
12,> 5,"CN(C)C(=O)c1ccc(Oc2nc(-c3cccc4[nH]ncc34)nc(N3CCC(=O)CC3)n2)cc1 [Compound 1044, 4-8-{[4-5-(1H-indazol-4-yl)-6-3-(4-30-oxopiperidin-1-yl)-1,3,5-triazin-2-yl]oxy}-N,N-dimethylbenzamide]"
13,> 5,"Cc1nc(N2CCOCC2)nc(N2CCOCC2)n1 [Compound 1045, 2-1-methyl-4-5,6-3-bis(morpholin-4-yl)-1,3,5-triazine]"
14,< 5,"NC(=O)c1cccc(Nc2nc(-c3cnc(N)nc3)nc(N3CCOCC3)n2)c1 [Compound 1046, 3-((4-(2-aminopyrimidin-5-yl)-6-morpholino-1,3,5-triazin-2-yl)amino)benzamide]"
15,> 5,"CN(C)C(=O)c1ccc(Oc2nc(-c3cccc4[nH]ncc34)nc(N3CC(C(N)=O)C3)n2)cc1 [Compound 1047, 1-7-{4-1-[4-11-(dimethylcarbamoyl)phenoxy]-6-5-(1H-indazol-4-yl)-1,3,5-triazin-2-yl}azetidine-3-carboxamide]"
16,< 5,"CS(=O)(=O)N[C@H]1CCC[C@H](Oc2nc(-c3cccc4c3cnn4S(C)(=O)=O)nc(N3CCOCC3)n2)C1 [Compound 1048, N-[(1S,3S)-3-14-{[4-1-(1-27-methanesulfonyl-1H-indazol-4-yl)-6-5-(morpholin-4-yl)-1,3,5-triazin-2-yl]oxy}cyclohexyl]methanesulfonamide]"
17,< 5,"CN(C)C(=O)N1CCN(Cc2nc(-c3ccc(N)nc3)nc(N3CCOCC3)n2)CC1 [Compound 1049, 4-((4-(6-aminopyridin-3-yl)-6-morpholino-1,3,5-triazin-2-yl)methyl)-N,N-dimethylpiperazine-1-carboxamide]"

row,IC50 [µM],SMILES
1,> 5,"CN(C)C(=O)c1ccc(Oc2nc(-c3cccc4[nH]nnc34)nc(N3CCOCC3)n2)cc1 [Compound 1050, 4-14-{[4-1-(1H-1,2,3-benzotriazol-4-yl)-6-5-(morpholin-4-yl)-1,3,5-triazin-2-yl]oxy}-N,N-dimethylbenzamide]"
2,< 5,"Nc1ncc(-c2nc(N3CCOCC3)nc(N3CCNC(=O)CC3)n2)cn1 [Compound 1051, 1-6-[4-1-(2-22-aminopyrimidin-5-yl)-6-5-(morpholin-4-yl)-1,3,5-triazin-2-yl]-1,4-diazepan-5-one]"
3,< 5,"CN(C)C(=O)c1ccc(Oc2nc(-c3ccc4[nH]ccc4c3)nc(N3CCOCC3)n2)cc1 [Compound 1052, 4-14-{[4-1-(1H-indol-5-yl)-6-5-(morpholin-4-yl)-1,3,5-triazin-2-yl]oxy}-N,N-dimethylbenzamide]"
4,< 5,"Nc1ncc(-c2nc(N3CCOCC3)nc(N3CCN(S(N)(=O)=O)CC3)n2)cn1 [Compound 1053, 4-6-[4-1-(2-16-aminopyrimidin-5-yl)-6-5-(morpholin-4-yl)-1,3,5-triazin-2-yl]piperazine-1-sulfonamide]"
5,< 5,"O=C1CCc2ccc(Oc3nc(-c4cccc5[nH]ncc45)nc(N4CCOCC4)n3)cc2N1 [Compound 1054, 7-14-{[4-1-(1H-indazol-4-yl)-6-5-(morpholin-4-yl)-1,3,5-triazin-2-yl]oxy}-1,2,3,4-tetrahydroquinolin-2-one]"
6,> 5,"CN(C)C(=O)c1ccc(Oc2nc(-c3cccc4[nH]ncc34)nc(N3CC4(COC4)C3)n2)cc1 [Compound 1055, 4-8-{[4-5-(1H-indazol-4-yl)-6-3-{2-oxa-6-azaspiro[3.3]heptan-6-yl}-1,3,5-triazin-2-yl]oxy}-N,N-dimethylbenzamide]"
7,> 5,CN(C)C(=O)c1cccc(Nc2nc(-c3cccc4[nH]ncc34)nc(N3CC(C(N)=O)C3)n2)c1 [Compound 1056]
8,> 5,"CN(C)C(=O)c1ccc(Oc2nc(NC3CCOCC3)nc(-c3cccc4[nH]ncc34)n2)cc1 [Compound 1057, 4-((4-(1H-indazol-4-yl)-6-((tetrahydro-2H-pyran-4-yl)amino)-1,3,5-triazin-2-yl)oxy)-N,N-dimethylbenzamide]"
9,< 5,"CN(C)C(=O)c1ccc(Oc2nc(-c3ccnc4[nH]ccc34)nc(N3CCOCC3)n2)cc1 [Compound 1058, N,N-dimethyl-4-14-{[4-5-(morpholin-4-yl)-6-1-{1H-pyrrolo[2,3-b]pyridin-4-yl}-1,3,5-triazin-2-yl]oxy}benzamide]"
10,> 5,"CN(C)C(=O)c1ccc(Oc2nc(-c3cccc4[nH]ncc34)nc(N3CCNC(=O)C3)n2)cc1 [Compound 1059, 4-7-{[4-5-(1H-indazol-4-yl)-6-3-(3-29-oxopiperazin-1-yl)-1,3,5-triazin-2-yl]oxy}-N,N-dimethylbenzamide]"
11,< 5,"CN(C)C(=O)c1cccc(Nc2nc(-c3ccc(N)nc3)nc(N3CCOCC3)n2)c1 [Compound 1060, 3-((4-(6-aminopyridin-3-yl)-6-morpholino-1,3,5-triazin-2-yl)amino)-N,N-dimethylbenzamide]"
12,> 5,"CN1CCN(c2nc(Oc3ccc(C(=O)N(C)C)cc3)nc(-c3cccc4[nH]ncc34)n2)CC1 [Compound 1061, 4-9-{[4-1-(1H-indazol-4-yl)-6-5-(4-30-methylpiperazin-1-yl)-1,3,5-triazin-2-yl]oxy}-N,N-dimethylbenzamide]"
13,< 5,"CS(=O)(=O)N1CCN(c2nc(-c3cnc(N)nc3)nc(N3CCOCC3)n2)CC1 [Compound 1062, 5-13-[4-3-(4-22-methanesulfonylpiperazin-1-yl)-6-5-(morpholin-4-yl)-1,3,5-triazin-2-yl]pyrimidin-2-amine]"
14,< 5,"O=C1CCc2cc(Oc3nc(-c4cccc5[nH]ncc45)nc(N4CCOCC4)n3)ccc2N1 [Compound 1063, 6-14-{[4-1-(1H-indazol-4-yl)-6-5-(morpholin-4-yl)-1,3,5-triazin-2-yl]oxy}-1,2,3,4-tetrahydroquinolin-2-one]"
15,< 5,"CN(C)C(=O)c1ccc(Oc2nc(-c3cccc4[nH]ccc34)nc(N3CCOCC3)n2)cc1 [Compound 1064, 4-14-{[4-1-(1H-indol-4-yl)-6-5-(morpholin-4-yl)-1,3,5-triazin-2-yl]oxy}-N,N-dimethylbenzamide]"
16,< 5,"CN(C)C(=O)c1ccc(Nc2nc(-c3ccc(N)nc3)nc(N3CCOCC3)n2)cc1 [Compound 1065, 4-((4-(6-aminopyridin-3-yl)-6-morpholino-1,3,5-triazin-2-yl)amino)-N,N-dimethylbenzamide]"

# — US9481670B2, “Triazine compounds” (Sphaera Pharma PTE. Ltd., priority 2011, dated 2016)
